The values that follow come from patent US9540325B2, “N1-cyclic amine-N5-substituted phenyl biguanide derivatives, methods of preparing the same and pharmaceutical composition comprising the same” (Immunomet Therapeutics, Inc., priority 2011, dated 2017).

One data set relates to AMPKα. The experiment in a line: Measurement of AMPK activation effect (AMPKα Thr172 phosphorylation immunoassay) in MCF7 cells. The format is cell-based, human. Conditions: 24 hours; for AMPK activation effect at 10 μM (%) / AMPK activation effect at 50 μM (%): relative to untreated cells; for AMPK activation effect AC150: concentration at which AMPK activation reached 150%. As for the experimental part: MCF7 cells derived from human breast cancer cells (commercially available from the Korean Cell Line Bank) were used, and the AMPK activation effect of the biguanide derivative was confirmed using an AMPKα immunoassay kit (Invitrogen, Catalog No. KHO0651).
MCF7 cells were cultured in a DMEM medium supplemented with 10% fetal bovine serum. Thereafter, the cultured MCF7 cells were put into a 6-well plate with approximately 5×10^5 cells per well and cultured in an incubator supplied with 5% CO2. Culture media were treated with the derivatives synthesized in the examples at contents of 5, 10 and 50 μM, and then cultured for 24 hours. Metformin hydrochloride was used as the control, and the culture media were treated with 0.05, 0.5, 1, 2, 5 and 10 mM metformin hydrochloride, and then tested in the same manner as described in the derivatives synthesized in the examples. Subsequently, the cells were lysed according to a method presented in the operation manual of the AMPKα immunoassay kit, and 20 μg of a cell lysate was then yielded through protein assay. Thereafter, the AMPK activation effect was obtained by determining the degree of phosphorylation of 172nd threonine residue (Thr172) of the AMPKα from the cell lysate according to the method presented in the operation manual of the AMPKα immunoassay kit. […] A curve graph showing AMPK activation according to the concentration of the treated compounds was plotted based on the obtained AMPKα activation results, the concentration (activation concentration 150, AC150) value of the compound whose AMPK activation reached 150% was calculated using a GraphPad Prism 5.0 program, and the degrees of AMPK activation were obtained when concentrations of the treated biguanide derivatives were 10 μM and 50 μM and the metformin hydrochloride was 50 μM

The next data set relates to HCT116 cells. The experiment in a line: Measurement of effect of inhibiting cancer cell proliferation (MTT). The data set is classed as cell-based, human. To be noted: Homo sapiens; for inhibition at 100 µM: HCT-116, 100 μM, 48 hours, read-out: Cell Growth Inhibition (%) at 100 μM; for GI50: HCT-116, 48 h. The source says: HCT116 cells derived from human colorectal cancer (commercially available from the Korean Cell Line Bank) were used, and the effect of inhibiting cancer cell proliferation of the biguanide derivative was confirmed by measuring the concentration value (cell growth inhibition concentration, GIC50) at which cell growth was inhibited by 50% using a 3-(4,5-dimethylthiazol-2-yl)-2,5-diphenyltetrazolium bromide (MTT) reagent.
First, HCT116 cells were put on a 96-well plate and cultured in a DMEM medium containing 10% fetal bovine serum for 16 hours so that the cellcount in each well was approximately 5,000. Subsequently, to obtain the GIC50 value of each compound, culture media were treated with 100 μM, 25 μM, 6.25 μM, 1.56 μM or 0.39 μM of the compound, and then cultured for 48 hours. Metformin hydrochloride was used as the control, and the culture media were treated with 25, 12.5, 2.5, 0.5, 0.1 mM metformin hydrochloride, and then tested in the same manner as described in the derivatives synthesized in the examples. In order to determine whether the cells survived after treatment with the compounds, MTT was added to the culture media which were then cultured for another 3 hours. Formed formazane crystals were dissolved using dimethyl sulfoxide (DMSO), and the absorbance of the resulting solution was measured at 560 nm. After the 48-hour culture, […] was indicated as cell viability (%) according to each treated concentration. A cell viability curve graph was plotted and the concentration (GIC50) value of the compound at which the growth was inhibited by 50% was calculated to confirm the inhibition effect of cancer cell proliferation. Also, the cell growth viability (%) when the concentration of the treated biguanide derivative and the metformin hydrochloride as the control were 100 μM was shown.

`COc1cccc(NC(=N)NC(=N)N2CCCCC2)c1.Cl` [Example 13, N1-piperidine-N5-(3-methoxy)phenyl biguanide hydrochloride] came in with a melting point of 230 to 232 °C. For the same compound, in the data set with AMPKα, the “AMPK activation effect at 10 μM (%)” value is listed as 97%, the “AMPK activation effect at 50 μM (%)” value was found to be 300% and the “AMPK activation effect AC150” value turned out to be 16.0 µM. Also, in the data set with HCT116 cells, the inhibition at 100 µM turned out to be 45.4% and the GI50 was over 100 µM.

`Cl.N=C(NC(=N)N1CCC1)Nc1ccc(C(F)(F)F)cc1` [Example 25, N1-azetidine-N5-(4-trifluoromethyl)phenyl biguanide hydrochloride] returned a melting point of 258 to 259 °C. In addition, in the data set with AMPKα, the “AMPK activation effect at 10 μM (%)” value is given as 99%, the “AMPK activation effect at 50 μM (%)” value amounted to 156% and the “AMPK activation effect AC150” value was 46.6 µM. Moreover, in the data set on HCT116 cells, the inhibition at 100 µM amounted to 96.3% and halving of growth (GI50) required 27.6 µM.

In the case of `CC(=O)Nc1ccc(NC(=N)NC(=N)N2CCCCC2)cc1.Cl` [Example 38, N1-piperidine-N5-(4-acetamide)phenyl biguanide hydrochloride], the melting point lay within 258 to 260 °C. Moreover, in the data set on AMPKα, the “AMPK activation effect at 10 μM (%)” value worked out at 94%, the “AMPK activation effect at 50 μM (%)” value worked out at 144% and the “AMPK activation effect AC150” value is over 50 µM. Besides, in the data set with HCT116 cells, the inhibition at 100 µM was 0% and the GI50 was over 100 µM.

The compound `CS(=O)(=O)Nc1cccc(NC(=N)NC(=N)N2CCCCC2)c1.Cl` [Example 41, N1-piperidine-N5-(3-methylsulfonamide)phenyl biguanide hydrochloride] returned a melting point of 251 to 253 °C. For the same compound, in the data set on AMPKα, the “AMPK activation effect at 10 μM (%)” value came out at 86%, the “AMPK activation effect at 50 μM (%)” value is listed as 125% and the “AMPK activation effect AC150” value is over 50 µM. Moreover, in the data set with HCT116 cells, the inhibition at 100 µM stood at 18.8% and the GI50 was over 100 µM.

On to `CSc1ccc(NC(=N)NC(=N)N2CCCCC2)cc1.Cl` [Example 43, N1-piperidine-N5-(4-methylthio)phenyl biguanide hydrochloride], for which the melting point lay within 264 to 265 °C. Further, in the data set with AMPKα, the “AMPK activation effect at 10 μM (%)” value was 239%, the “AMPK activation effect at 50 μM (%)” value came out at 547% and the “AMPK activation effect AC150” value turned out to be 4.1 µM. Further, in the data set on HCT116 cells, the inhibition at 100 µM was determined as 98% and the GI50 was 37.1 µM.

The compound `Cl.N=C(NC(=N)N1CCCC1)Nc1cc(Br)cc(OC(F)(F)F)c1` [Example 66, N1-pyrrolidine-N5-(3-bromo-5-trifluoromethoxy)phenyl biguanide hydrochloride] showed a melting point of 241 to 242 °C. Moreover, in the data set on AMPKα, the “AMPK activation effect at 10 μM (%)” value was 521% and the “AMPK activation effect AC150” value amounted to 5.0 µM. Also, in the data set on HCT116 cells, the inhibition at 100 µM was 97.6% and it took 6.8 µM to inhibit growth by half (GI50).

`CN(C)c1ccc(NC(=N)NC(=N)N2CCCCC2)cc1.Cl` [Example 37, N1-piperidine-N5-(4-dimethylamino)phenyl biguanide hydrochloride]: the melting point was 253 to 255 °C. Besides, in the data set with AMPKα, the “AMPK activation effect at 10 μM (%)” value is recorded as 123%, the “AMPK activation effect at 50 μM (%)” value turned out to be 286% and the “AMPK activation effect AC150” value came out at 13.9 µM. In the data set on HCT116 cells, the inhibition at 100 µM came to 32.2% and the GI50 was over 100 µM.

Compound `Cl.N=C(NC(=N)N1CCCCC1)Nc1ccc(F)cc1F` [Example 58, N1-piperidine-N5-(2,4-difluoro)phenyl biguanide hydrochloride] displayed a melting point of 256 to 257 °C. In addition, in the data set with AMPKα, the “AMPK activation effect at 10 μM (%)” value came out at 131%, the “AMPK activation effect at 50 μM (%)” value was determined as 265% and the “AMPK activation effect AC150” value turned out to be 16.5 µM. In addition, in the data set with HCT116 cells, the inhibition at 100 µM came to 37.4% and the concentration for 50% growth inhibition (GI50) was over 100 µM.

As for `Cl.N=C(NC(=N)N1CCC1)Nc1ccc(OC(F)(F)F)c(F)c1` [Example 52, N1-azetidine-N5-(3-fluoro-4-trifluoromethoxy)phenyl biguanide hydrochloride], the melting point was in the range of 260 to 261 °C. Moreover, in the data set on AMPKα, the “AMPK activation effect at 10 μM (%)” value is reported as 265%, the “AMPK activation effect at 50 μM (%)” value was 740% and the “AMPK activation effect AC150” value was 3.3 µM. Also, in the data set on HCT116 cells, the inhibition at 100 µM amounted to 101% and the GI50 turned out to be 19.8 µM.

The compound `Cl.N=C(NC(=N)N1CCCC1)Nc1cccc(C(F)(F)F)c1` [Example 23, N1-pyrrolidine-N5-(3-trifluoromethyl)phenyl biguanide hydrochloride] returned a melting point of 286 to 287 °C. In addition, in the data set on AMPKα, the “AMPK activation effect at 10 μM (%)” value was 199%, the “AMPK activation effect at 50 μM (%)” value was determined as 578% and the “AMPK activation effect AC150” value was 4.4 µM. In the data set with HCT116 cells, the inhibition at 100 µM came out at 97.6% and it took 38.9 µM to inhibit growth by half (GI50).

Take `Cl.N=C(NC(=N)N1CCCCC1)Nc1ccc(F)c(F)c1` [Example 59, N1-piperidine-N5-(3,4-difluoro)phenyl biguanide hydrochloride]: the melting point was 257 to 258 °C. Moreover, in the data set on AMPKα, the “AMPK activation effect at 10 μM (%)” value is on record as 269%, the “AMPK activation effect at 50 μM (%)” value is recorded as 1036% and the “AMPK activation effect AC150” value was found to be 3.6 µM. In the data set on HCT116 cells, the inhibition at 100 µM is 97.8% and it took 28.1 µM to inhibit growth by half (GI50).

`Cl.N=C(NC(=N)N1CCCCC1)Nc1ccc(Cl)c(OC(F)(F)F)c1` [Example 51, N1-piperidine-N5-(4-chloro-3-trifluoromethoxy)phenyl biguanide hydrochloride] yielded a melting point of 251 to 252 °C. Further, in the data set on AMPKα, the “AMPK activation effect at 10 μM (%)” value is 160% and the “AMPK activation effect AC150” value is 7.8 µM. Further, in the data set with HCT116 cells, the inhibition at 100 µM turned out to be 96.3% and it took 1.9 µM to inhibit growth by half (GI50).

In turn, `Cl.N=C(NC(=N)N1CCCCC1)Nc1c(F)cc(F)cc1F` [Example 69, N1-piperidine-N5-(2,4,6-trifluoro)phenyl biguanide hydrochloride] returned a melting point of 243 to 244 °C. For the same compound, in the data set on AMPKα, the “AMPK activation effect at 10 μM (%)” value is 131%, the “AMPK activation effect at 50 μM (%)” value is 156% and the “AMPK activation effect AC150” value is 42.0 µM. In the data set with HCT116 cells, the inhibition at 100 µM came out at 21.5% and the GI50 is over 100 µM.

`Cl.N=C(NC(=N)N1CCCCC1)Nc1ccc(F)c(C(F)(F)F)c1` [Example 46, N1-piperidine-N5-(4-fluoro-3-trifluoromethyl)phenyl biguanide hydrochloride] came in with a melting point of 269 to 270 °C. Moreover, in the data set with AMPKα, the “AMPK activation effect at 10 μM (%)” value was 261% and the “AMPK activation effect AC150” value turned out to be 1.3 µM. Besides, in the data set on HCT116 cells, the inhibition at 100 µM was 97% and it took 5.6 µM to inhibit growth by half (GI50).

With `Cl.N=C(NC(=N)N1CCCCC1)Nc1ccc(-c2nnn[nH]2)cc1` [Example 40, N1-piperidine-N5-(4-(1H-tetrazole-5-yl))phenyl biguanide hydrochloride], the melting point was in the range of 241 to 242 °C. In the data set with AMPKα, the “AMPK activation effect at 10 μM (%)” value is recorded as 41%, the “AMPK activation effect at 50 μM (%)” value is listed as 55% and the “AMPK activation effect AC150” value was over 50 µM. In the data set with HCT116 cells, the inhibition at 100 µM is 0.9% and the GI50 is over 100 µM.

With `Cl.N=C(NC(=N)N1CCOCC1)Nc1cccc(Br)c1` [Example 22, N1-morpholine-N5-(3-bromo)phenyl biguanide hydrochloride], the melting point fell in the range of 264 to 265 °C. In the data set with AMPKα, the “AMPK activation effect at 10 μM (%)” value was determined as 127%, the “AMPK activation effect at 50 μM (%)” value is given as 119% and the “AMPK activation effect AC150” value amounted to 2.3 µM. For the same compound, in the data set with HCT116 cells, the inhibition at 100 µM was 44.5% and the GI50 is over 100 µM.
